Experimental data from ChEMBL document CHEMBL5096216, “Rational Design, Synthesis, and Biological Evaluation of Novel S1PR2 Antagonists for Reversing 5-FU-Resistance in Colorectal Cancer” (J Med Chem, 2022).
Activity calls are given as the source filed them. The calls are words filed in the database; no cut-off is given here.

Experiments:
Mus musculus [1] = assay: In vivo inhibition of liver DPD expression in human SW620/5-FU cells xenografted in nude mouse at 1 to 10 mg/kg/day by Western blot analysis; type: functional, organism-based; conditions: dose 1-10 mg/kg/day
SW620/5-FU [2] = assay: cells; conditions: Homo sapiens, 48 h
[3] = Toxicity in nude mouse xenografted with human SW620/5-FU cells assessed as morphological changes in lung at 1 to 10 mg/kg/day, iv by hematoxylin-eosin staining based analysis; type: organism-based; conditions: in vivo, dose 1-10 mg/kg/day
HT-29 [4] = assay: Reversal of 5-FU resistance in human HT-29 cells assessed as fold reduction in 5-Fluorouracil IC50 at 2 uM incubated for 48 hrs; type: functional
[5] = Metabolic stability in human plasma assessed as compound remaining at 1 mg/ml measured after 48 hrs by HPLC analysis; type: ADME, cell-free; conditions: read-out: Stability
[6] = molecular target: T1, Sphingosine 1-phosphate receptor 4 (Homo sapiens, UniProt O95977); assay: Binding affinity to S1PR4 (unknown origin) assessed as dissociation constant by surface plasmon resonance analysis
T1 sequence (O95977 whole entry): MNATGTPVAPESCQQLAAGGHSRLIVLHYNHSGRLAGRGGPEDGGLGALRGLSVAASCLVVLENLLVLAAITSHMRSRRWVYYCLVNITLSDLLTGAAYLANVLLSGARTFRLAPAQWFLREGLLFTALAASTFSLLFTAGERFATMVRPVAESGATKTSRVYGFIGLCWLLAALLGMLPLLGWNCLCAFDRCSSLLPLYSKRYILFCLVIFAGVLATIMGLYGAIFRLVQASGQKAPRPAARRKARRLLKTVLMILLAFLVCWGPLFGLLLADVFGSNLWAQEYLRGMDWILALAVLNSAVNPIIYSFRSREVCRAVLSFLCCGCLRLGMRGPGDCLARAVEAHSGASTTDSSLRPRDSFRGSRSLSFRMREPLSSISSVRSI

Mus musculus [7] = assay: In vivo inhibition of tumor DPD expression in human SW620/5-FU cells xenografted in nude mouse at 1 to 10 mg/kg/day by immunohistochemistry analysis; type: functional, organism-based; conditions: dose 1-10 mg/kg/day
[8] = Induction of intracellular 5-FU accumulation in human SW620/5-FU cells measured after 6 hrs by HPLC analysis (reference value: 4.3 microg/ml); type: functional
HT-29 [9] = assay: Upregulation of H3K27me3 expression in 5-FU resistant human HT-29 cells incubated for 12 hrs by Western blot analysis; type: functional, cell-based; conditions: dose 2.5-20 µM, DDE = dose-dependent effect
HT-29 [10] = assay: Reversal of 5-FU resistance in human HT-29 cells assessed as fold reduction in 5-Fluorouracil IC50 at 5 uM incubated for 48 hrs; type: functional
[11] = Metabolic stability in rat liver homogenate assessed as compound remaining at 1 mg/ml measured after 48 hrs by HPLC analysis; type: ADME, tissue-based; conditions: read-out: Stability
SW620/5-FU [12] = assay: Antitumor activity against human SW620/5-FU cells xenografted in nude mouse assessed as tumor volume at 5 mg/kg/day, iv measured on day 15 in presence of 5-FU (reference value: 1991 +/- 469 mm3); type: functional; conditions: time 15 day
SW620/5-FU [13] = assay: Antitumor activity against human SW620/5-FU cells xenografted in nude mouse assessed as tumor volume at 1 mg/kg/day, iv measured on day 1 in presence of 5-FU (reference value: 105 +/- 14 mm3); type: functional; conditions: time 1 day
HCT-116 [14] = assay: cells; conditions: Homo sapiens, HCT-116, 48 h
Description: Reversal of 5-FU resistance in human HCT-116 cells overexpressing DPD assessed as reduction in 5-Fluorouracil IC50 at 2 uM incubated for 48 hrs (Rvb = 1836.66 +/- 87.95 %)

HCT-116 [15] = assay: Reversal of 5-FU resistance in human HCT-116 cells overexpressing DPD assessed as fold reduction in 5-Fluorouracil IC50 at 2 uM incubated for 48 hrs; type: functional
HCT-116 [16] = assay: Antiproliferative activity against human HCT-116 cells overexpressing DPD assessed as reduction in cell viability incubated for 48 hrs by MTT assay; type: functional, cell-based; conditions: HCT-116, 48 h
SW620/5-FU [17] = assay: Downregulation of DPD expression in human SW620/5-FU cells incubated for 12 hrs by Western blot analysis; type: functional, cell-based; conditions: dose 2.5-20 µM, DDE = dose-dependent effect
SW620/5-FU [18] = assay: Inhibition of FBAL stimulated DPD expression in human SW620/5-FU cells at 10 uM incubated for 72 hrs by Western blot analysis; type: functional, cell-based
[19] = Metabolic stability in rat plasma assessed as compound remaining at 1 mg/ml measured after 48 hrs by HPLC analysis; type: ADME, cell-free; conditions: read-out: Stability
[20] = Toxicity in nude mouse xenografted with human SW620/5-FU cells assessed as morphological changes in kidney at 1 to 10 mg/kg/day, iv by hematoxylin-eosin staining based analysis; type: organism-based; conditions: in vivo, dose 1-10 mg/kg/day
NCM460 = assay: Cytotoxicity against human NCM460 cells assessed as reduction in cell viability incubated for 48 hrs in presence of 5-FU by MTT assay; type: functional, cell-based; conditions: NCM460, 48 h
SW620/5-FU [21] = assay: cells; conditions: Homo sapiens, 48 h; remark: listed apart in the source
[22] = Cytotoxicity against human NCM460 cells assessed as reduction in cell viability incubated for 48 hrs by MTT assay; type: toxicity, cell-based
SW620/5-FU [23] = assay: Induction of apoptosis in human SW620/5-FU cells assessed as viable cells at 20 uM incubated for 24 hrs in presence of 5-FU by Annexin-V/PI staining based flow cytometry assay (reference value: 94.3%); type: functional; conditions: read-out: Activity
SW620/5-FU [24] = assay: Antitumor activity against human SW620/5-FU cells xenografted in nude mouse assessed as tumor volume at 5 mg/kg/day, iv measured on day 1 in presence of 5-FU (reference value: 105 +/- 14 mm3); type: functional; conditions: time 1 day
SW620/5-FU [25] = assay: Antitumor activity against human SW620/5-FU cells xenografted in nude mouse assessed as tumor growth inhibition at 5 mg/kg/day, iv in presence of 5-FU; type: functional; conditions: read-out: TGI
[26] = molecular target: Sphingosine 1-phosphate receptor 2 (Homo sapiens, UniProt O95136); assay: Inhibition of FBAL stimulated S1PR2 in human SW620/5-FU cells incubated for 72 hrs by Western blot analysis; type: cell-based; conditions: dose 5-15 µM, DDE = dose-dependent effect
Sphingosine 1-phosphate receptor 2, sequence (O95136 whole entry): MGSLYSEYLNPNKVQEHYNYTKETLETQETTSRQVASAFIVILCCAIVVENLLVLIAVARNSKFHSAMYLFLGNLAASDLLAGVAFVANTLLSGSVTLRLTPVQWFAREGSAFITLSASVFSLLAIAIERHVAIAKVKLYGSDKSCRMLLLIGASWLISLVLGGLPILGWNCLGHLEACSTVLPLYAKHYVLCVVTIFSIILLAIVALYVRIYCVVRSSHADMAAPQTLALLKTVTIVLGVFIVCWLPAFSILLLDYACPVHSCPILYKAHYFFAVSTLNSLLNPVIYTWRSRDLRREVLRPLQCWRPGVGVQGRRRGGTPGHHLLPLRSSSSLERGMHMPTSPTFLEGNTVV

SW620/5-FU [27] = assay: Induction of apoptosis in human SW620/5-FU cells assessed as necrotic cells at 10 uM incubated for 24 hrs by Annexin-V/PI staining based flow cytometry assay (reference value: 0%); type: functional
SW620/5-FU [28] = assay: Reversal of 5-FU resistance in human SW620/5-FU cells assessed as fold reduction in 5-Fluorouracil IC50 at 2 uM incubated for 48 hrs; type: functional
SW620/5-FU [29] = assay: Induction of apoptosis in human SW620/5-FU cells assessed as viable cells at 10 uM incubated for 24 hrs in presence of 5-FU by Annexin-V/PI staining based flow cytometry assay (reference value: 94.3%); type: functional; conditions: read-out: Activity
SW620/5-FU [30] = assay: Downregulation of JMJD3 expression in human SW620/5-FU cells incubated for 12 hrs by Western blot analysis; type: functional, cell-based; conditions: dose 2.5-20 µM, DDE = dose-dependent effect
SW620/5-FU [31] = assay: Antitumor activity against human SW620/5-FU cells xenografted in nude mouse assessed as tumor wight at 5 mg/kg/day, iv in presence of 5-FU (reference value: 1.3 +/-0.6 g); type: functional
SW620/5-FU [32] = assay: Downregulation of H3K27me3 expression in human SW620/5-FU cells at 10 uM incubated for 72 hrs by Western blot analysis; type: functional, cell-based

IC50 (SW620/5-FU [2]): 36.8 µM
remaining at 48 h, 1 mg/ml [5]: 96.4%
Kd [6]: > 0.1 µM
remaining at 48 h, 1 mg/ml [11]: 68.9%
IC50 (HCT-116 [14]): 56.4 µM
IC50 (HCT-116 [16]): > 100 µM
remaining at 48 h, 1 mg/ml [19]: 93%
IC50 (SW620/5-FU [21]): 17.6 µM
inhibition [26]: Dde
Compound: CCC(CC)CN1CCN(C(=O)Nc2cc(Oc3ccc(F)cc3)cc(Oc3ccc(C(=O)NC)cc3)c2)CC1
inhibition (Mus musculus [1]): Active
Activity [3]: Non-Toxic
fold change (FC) (HT-29 [4]): 66
inhibition (Mus musculus [7]): Active
Activity [8]: 12.2 µg/mL
Activity (HT-29 [9]): Dde
fold change (FC) (HT-29 [10]): 127
Activity (SW620/5-FU [12]): 662 mm3
Activity (SW620/5-FU [13]): 104 mm3
fold change (FC) (HCT-116 [15]): 33
Activity (SW620/5-FU [17]): Dde
inhibition (SW620/5-FU [18]): Active
Activity [20]: Non-Toxic
IC50 (NCM460): > 100 µM
IC50 at 48 hrs [22]: > 100 µM
viability at 20 µM (SW620/5-FU [23]): 64.2%
Activity (SW620/5-FU [24]): 103 mm3
inhibition in vivo at 5 mg/kg/day (SW620/5-FU [25]): 66.8%
Activity (SW620/5-FU [27]): 0.042%
fold change (FC) (SW620/5-FU [28]): 42
viability at 10 µM (SW620/5-FU [29]): 87.7%
Activity (SW620/5-FU [30]): Dde
Activity (SW620/5-FU [31]): 0.5 g
Activity (SW620/5-FU [32]): Active
